The source of these data is US20200261450A1, “6,7-DIHYDROPYRAZOLO[1,5-a]PYRAZIN-4(5H)-ONE COMPOUNDS AND THEIR USE AS NEGATIVE ALLOSTERIC MODULATORS OF MGLUR2 RECEPTORS” (Janssen Pharmaceutica NV, priority 2014, published 2020).

As usually defined, the melting point is the temperature of the solid-liquid transition. In general, Emax refers to the greatest response seen or fitted, relative to the assay's reference. As a reminder, the ED50 is the dose at which the effect has come halfway, by size or by number of responders.

Where two headings read alike, the source gives them in different places. A value given as a limit tells only on which side of the number the result lay.

Series [1] concerns the target T1, human mGlu2 receptor (Homo sapiens, UniProt Q14416).
T1 construct: expressed in transfected cells; host or cells: CHO cells (membrane preparation)
The series can be described thus: [35S]GTPγS binding assay, mGluR2 negative allosteric modulation. It counts as biochemical. Conditions: for Emax: maximal % inhibition relative to the control glutamate response, read-out: GTPγS-hmGluR2 anGT Emax; for IC50: membranes from CHO cells transfected with human mGlu2 receptor, glutamate 60 μM (~EC80), read-out: GTPγS-hmGluR2 anGT pIC50 (converted). An excerpt:
Membrane-bound radioactivity was counted in a Topcount.
(Binding of GTPγS marks nucleotide exchange on a G protein.)

Series [2] deals with rats. The series is described as follows: Reversal of the effect of the mGluR2 PAM JNJ-42153605-induced inhibition of scopolamine-induced hyperlocomotion. In kind it is in vivo. Conditions: Rattus norvegicus, criterion total distance >1500 cm, read-out: ED50 SCOP JNJ-42153605. Here is the method: 2) Reversal of the Effect of the mGluR2 PAM JNJ-42153605-Induced Inhibition of Scopolamine-Induced Hyperlocomotion
Motor activity was measured in microprocessor-based motor activity arenas (closed gray PVC cylinders with a height of 39 cm and a diameter of 31 cm). Each arena was placed on an infrared LED (8×8 LEDs) lit box (white PVC squared box; 40×40 cm^2; height 12.5 cm. An infrared-sensitive tube camera and a white light source were mounted to the ceiling above the observation chamber to track the animal. The total distance traveled (cm) was recorded and analyzed using the Noldus Ethovision XT Video Tracking System (Version 7.0.418; Noldus, Wageningen, The Netherlands). The intensity of the light within the activity cages (measured in the centre at the level of the floor) ranged between 4 and 8 LUX.
The rats were pretreated with test compound or vehicle at 60 min before the start of the activity recordings and placed into individual cages. The rats were challenged with JNJ-42153605 (3-(cyclopropylmethyl)-7-(4-phenylpiperidin-1-yl)-8-(trifluoromethyl)[1,2,4]triazolo[4,3-a]pyridine; WO2010/130424; Cid et al. J. Med. Chem. 2012, 55, 8770-8789) (20 mg/kg, i.v.) 30 min before the start of the activity recording combined with scopolamine (0.16 mg/kg, i.v.) just before the start of the activity measurements. Immediately after the injection of scopolamine, the rats were placed into the activity monitors and total distance traveled over the first 30 min was measured.
Animals receiving the combination of JNJ-42153605 and scopolamine (n=433) almost always traveled a distance of less than 1500 cm (<1500 cm) (only 2.5% of the control rats traveled a distance of more than 1500 cm (>1500 cm)). On the other hand, animals challenged with scopolamine alone (n=215) always traveled a total distance of more than 1500 cm (>1500 cm) and almost always (in 95.8% of the rats) a distance of more than 4400 cm (>4400 cm). […] For reversal of the inhibitory effect of JNJ-42153605 on the scopolamine-induced hyperlocomotion, the following all-or-none criteria were adopted: (1) reversal: total distance >1500 cm.

The test system of series [3] is Wiga rats. The series can be described thus: Induction of mydriasis. It counts as in vivo. As to conditions: Rattus norvegicus, route PO, pupil diameter >25 units 1 h post-administration. Here is the method: The pupil diameter of Wiga rats was measured with a microscopic micrometer (1 unit= 1/24 mm). Criteria for drug-induced effects: pupil diameter >25 units for mydriasis (in controls: 1.9%) 1 h post-administration of the test compound.

Series [4] relates to Wiga Wistar rats. The series can be described thus: Reversal of LY-404039-induced decrease of palpebral opening in apomorphine-challenged rats. In kind it is in vivo. As to conditions: Rattus norvegicus, criterion cumulative palpebral opening score >26, read-out: ED50 APO LY-404039. On the procedure: Male Wiga Wistar rats (Crl:WI; Charles River Germany; 220±40 g) were housed under standard laboratory conditions (21±2° C.; 50-65% relative humidity; light-dark cycle set at 12 h; lights on at 6.00 h) and fasted overnight prior to the start of the experiments (tap water remained available ad libitum). During the test period, they were housed in individual cages. Palpebral opening was scored every 5 min over the first hour after injection of apomorphine (1.0 mg/kg, i.v.) in animals either pretreated or not pretreated with LY-404039 (2.5 mg/kg, s.c.) at 1 h prior to the apomorphine injection. The animals were also pretreated with test compound or solvent at a predefined interval before apomorphine challenge. The score system was: (5) exophthalmos, (4) wide open, (3) open for three-quarters, (2) half open, (1) open for one-quarter, (0) closed. The scores for palpebral opening were cumulated over the 60-min observation period.
In animals receiving apomorphine alone the median palpebral opening is 43 whereas in animals receiving apomorphine and LY-404039, the median palpebral opening is 17.

T1 sequence (Q14416 19-872): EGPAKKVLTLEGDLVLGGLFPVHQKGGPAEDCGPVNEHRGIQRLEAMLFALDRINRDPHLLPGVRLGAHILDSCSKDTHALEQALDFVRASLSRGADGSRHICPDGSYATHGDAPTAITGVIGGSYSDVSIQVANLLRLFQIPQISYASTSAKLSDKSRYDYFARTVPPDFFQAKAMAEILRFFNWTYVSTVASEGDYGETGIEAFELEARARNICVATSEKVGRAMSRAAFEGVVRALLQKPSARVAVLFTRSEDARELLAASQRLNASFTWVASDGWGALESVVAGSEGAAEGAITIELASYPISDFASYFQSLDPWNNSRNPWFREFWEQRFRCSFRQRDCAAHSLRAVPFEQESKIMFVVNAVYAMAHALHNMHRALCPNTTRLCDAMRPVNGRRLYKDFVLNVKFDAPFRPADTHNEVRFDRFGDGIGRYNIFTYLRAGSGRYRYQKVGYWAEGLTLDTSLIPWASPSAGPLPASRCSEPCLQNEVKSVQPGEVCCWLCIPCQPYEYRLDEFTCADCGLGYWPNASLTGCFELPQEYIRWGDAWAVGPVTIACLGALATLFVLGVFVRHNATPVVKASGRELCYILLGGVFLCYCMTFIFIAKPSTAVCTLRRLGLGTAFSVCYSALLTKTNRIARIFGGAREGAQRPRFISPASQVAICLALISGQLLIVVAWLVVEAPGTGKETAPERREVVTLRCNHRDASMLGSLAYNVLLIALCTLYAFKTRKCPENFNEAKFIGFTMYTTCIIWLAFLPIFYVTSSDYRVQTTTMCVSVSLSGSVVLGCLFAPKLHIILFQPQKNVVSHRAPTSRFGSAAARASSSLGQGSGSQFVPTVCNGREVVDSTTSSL

Take `Cc1cc(N2C[C@H](C)n3ncc(-c4cc(-c5cncc(F)c5)no4)c3C2=O)ccc1C(F)(F)F` [compound 19]: the melting point was 171.64 °C. Further, in series [1], the Emax was found to be 104% and the IC50 is 12.9 nM.

`Cc1ccncc1-c1cc(-c2cnn3c2C(=O)N(c2ccc(C(F)(F)F)cc2)C[C@@H]3C)on1` [compound 10] returned a melting point of 211.19 °C. The ED50 in series [2] (route PO) was over 0.63 mg/kg. Moreover, in series [1], the Emax was 108% and the IC50 is 2.88 nM.

In turn, `Cc1ccncc1-c1cc(-c2cnn3c2C(=O)N(c2ccc(C(F)(F)F)c(Cl)c2)C[C@@H]3C)on1` [compound 15] gave a melting point of 149.26 °C. For the same compound, the ED50 in series [2] (route PO) is over 0.63 mg/kg. For the same compound, in series [1], the Emax is 110% and the IC50 is 1.2 nM.

With `C[C@H]1CN(c2ccc(C(F)(F)F)cc2)C(=O)c2c(-c3cc(N)no3)cnn21` [Co. No. 1, (7S)-3-(3-Aminoisoxazol-5-yl)-7-methyl-5-[4-(trifluoromethyl)phenyl]-6,7-dihydropyrazolo[1,5-a]pyrazin-4-one], in series [1], the Emax was determined as 100% and the IC50 is 490 nM.

`C[C@H]1CN(c2ccc(C(F)(F)F)cc2)C(=O)c2c(-c3cc(-c4cncc(F)c4)no3)cnn21` [compound 9]: the melting point turned out to be 180.17 °C. In addition, in series [1], the Emax stood at 108% and the IC50 is 11 nM.

For the compound `Cc1cc(N2C[C@H](C)n3ncc(-c4cc(-c5cnccn5)no4)c3C2=O)ccc1C(F)(F)F` [compound 21], the melting point came out at 150.37 °C. Also, the ED50 in series [2] (route PO) is over 0.63 mg/kg. Also, in series [1], the Emax stood at 109% and the IC50 was 7.08 nM.

With `C[C@H]1CN(c2ccc(C(F)(F)F)c(Cl)c2)C(=O)c2c(-c3cc(-c4ccc(N)nc4)no3)cnn21` [Co. No. 3, (7S)-3-[3-(6-Amino-3-pyridyl)isoxazol-5-yl]-5-[3-chloro-4-(trifluoromethyl)phenyl]-7-methyl-6,7-dihydropyrazolo[1,5-a]pyrazin-4-one], the ED50 in series [2] (route PO) came out at 0.5 mg/kg. In series [1], the Emax is 105% and the IC50 was 1.58 nM.

With `C[C@H]1CN(c2ccc(C(F)(F)F)c(Cl)c2)C(=O)c2c(-c3cc(-c4ccccn4)no3)cnn21` [compound 13], the melting point worked out at 159.08 °C. Also, in series [2] (route PO), the ED50 was over 0.63 mg/kg. In series [1], the Emax worked out at 107% and the IC50 was 7.24 nM.

On to `C[C@H]1CN(c2ccc(C(F)(F)F)c(Cl)c2)C(=O)c2c(-c3cc(-c4cnccn4)no3)cnn21` [compound 16], for which the melting point was determined as 168.47 °C. Also, the ED50 in series [2] (route PO) is over 0.63 mg/kg. In series [1], the Emax is 105% and the IC50 is 3.8 nM.

`C[C@H]1CN(c2ccc(C(F)(F)F)cc2)C(=O)c2c(-c3cc(-c4cnccn4)no3)cnn21` [compound 11] returned a melting point of 202.51 °C. Further, in series [1], the Emax came to 105% and the IC50 was 20 nM.

Compound `C[C@H]1CN(c2ccc(C(F)(F)F)cc2)C(=O)c2c(-c3cc(-c4ccccc4)no3)cnn21` [compound 6] gave a melting point of 220.55 °C. Besides, in series [1], the Emax turned out to be 103% and the IC50 was 12.3 nM.

With `Cc1cc(-c2cnn3c2C(=O)N(c2ccc(C(F)(F)F)cc2)C[C@@H]3C)on1` [compound 5], the melting point was found to be 161 °C. For the same compound, the ED50 in series [2] (route PO) is over 2.5 mg/kg. In series [1], the Emax stood at 102% and the IC50 was 16.6 nM.

`Cc1cc(N2C[C@H](C)n3ncc(-c4cc(-c5ccccn5)no4)c3C2=O)ccc1C(F)(F)F` [compound 17] yielded a melting point of 171.97 °C. Also, the ED50 in series [2] (route PO) is over 0.63 mg/kg. Besides, in series [1], the Emax turned out to be 107% and the IC50 was 10.2 nM.

Regarding `Cc1ccncc1-c1cc(-c2cnn3c2C(=O)N(c2ccc(C(F)(F)F)c(C)c2)C[C@@H]3C)on1` [compound 20], the melting point came out at 172.39 °C. The ED50 in series [2] (route PO) was over 0.63 mg/kg. In series [1], the Emax turned out to be 109% and the IC50 is 2.14 nM.

Consider `Cc1cc(-c2cnn3c2C(=O)N(c2ccc(C(F)(F)F)c(Cl)c2)C[C@@H]3C)on1` [compound 12], for which the melting point amounted to 126.2 °C. In series [2] (route PO), the ED50 is 1.99 mg/kg. Besides, in series [1], the Emax amounted to 103% and the IC50 was 2.75 nM.

As to `C[C@H]1CN(c2ccc(C(F)(F)F)c(Cl)c2)C(=O)c2c(-c3cc(-c4cncc(F)c4)no3)cnn21` [compound 14], the melting point was 181.56 °C. Moreover, in series [1], the Emax was 105% and the IC50 was 5.89 nM.

In the case of `C[C@H]1CN(c2ccc(C(F)(F)F)cc2)C(=O)c2c(-c3cc(-c4ccc(N)nc4)no3)cnn21` [Co. No. 2, (7S)-3-[3-(6-Amino-3-pyridyl)isoxazol-5-yl]-7-methyl-5-[4-(trifluoromethyl)phenyl]-6,7-dihydropyrazolo[1,5-a]pyrazin-4-one], the melting point amounted to 263.6 °C. Further, the ED50 in series [3] amounted to 7.94 mg/kg. In addition, the ED50 in series [4] (route PO) was found to be 0.32 mg/kg. Besides, the ED50 in series [4] (route SC) was 0.2 mg/kg. The ED50 in series [2] (route PO) amounted to 0.28 mg/kg. For the same compound, in series [2] (route SC), the ED50 was found to be 0.3 mg/kg. In series [1], the Emax is 112% and the IC50 is 1.95 nM.

Compound `Cc1cc(N2C[C@H](C)n3ncc(-c4cc(-c5cccnc5)no4)c3C2=O)ccc1C(F)(F)F` [compound 18] registered a melting point of 143.97 °C. Besides, in series [2] (route PO), the ED50 is over 0.63 mg/kg. Also, in series [1], the Emax stood at 109% and the IC50 was 3.24 nM.

Compound `C[C@H]1CN(c2ccc(C(F)(F)F)cc2)C(=O)c2c(-c3cc(-c4ccccn4)no3)cnn21` [compound 7] showed a melting point of 227.97 °C. Further, in series [1], the Emax came to 107% and the IC50 was 11.7 nM.

The compound `C[C@H]1CN(c2ccc(C(F)(F)F)c(Cl)c2)C(=O)c2c(-c3cc(-c4cccnc4)no3)cnn21` [Co. No. 4, (7S)-5-[3-Chloro-4-(trifluoromethyl)phenyl]-7-methyl-3-[3-(3-pyridyl)isoxazol-5-yl]-6,7-dihydropyrazolo[1,5-a]pyrazin-4-one] gave a melting point of 115.67 °C. Further, the ED50 in series [2] (route PO) was determined as 0.51 mg/kg. Also, in series [1], the Emax was determined as 105% and the IC50 is 2.34 nM.

As to `C[C@H]1CN(c2ccc(C(F)(F)F)cc2)C(=O)c2c(-c3cc(-c4cccnc4)no3)cnn21` [compound 8], the melting point was determined as 186.15 °C. In addition, in series [1], the Emax was determined as 105% and the IC50 is 12.9 nM.
